Columns and labels:
ob/ob mice = experiment: Glycerol tolerance test in ob/ob mice; format: in vivo, mouse; details: 25 mg/kg twice weekly, after 6th dose, glycerol 1 g/kg oral
Procedure: The mice described in Example 7 were evaluated for performance on glycerol tolerance tests after the 6th dose of saline or antisense oligonucleotides. This is a functional measure of glucose-6-phosphatase translocase inhibition; i.e., whether the conversion of […] to glucose is impaired by antisense inhibitors of glucose-6-phosphatase translocase.
Glycerol tolerance tests were performed after treatment with saline, ISIS 148985 (SEQ ID NO: 118), or ISIS 149008 (SEQ ID NO: 141). Glycerol was administered by oral gavage via an 18 g gavage needle at a dose of 1 g/kg. Plasma glucose levels were measured for 30, 60, 90 and 120 minutes post-challenge using an Ascencia Glucometer Elite XL (Bayer, Tarrytown, N.Y.) and plotted over time. Area under the curve (AUC) for each treatment graph was calculated.

[1] = test system: mouse glucose-6-phosphatase translocase mRNA; experiment: Antisense inhibition of mouse glucose-6-phosphatase translocase mRNA in primary mouse hepatocytes, 50 nM (Table 5); format: cell-based; details: 50 nM oligonucleotide, mRNA by real-time PCR, normalized with RIBOGREEN
[2] = Liver triglycerides and liver glycogen in lean ob/ob+/- mice; format: in vivo, mouse; details: 50 mg/kg s.c. twice weekly, five doses; for Liver glycogen levels: saline approximately 37
Procedure: Ob/ob mice have a mutation in the leptin gene which results in obesity and hyperglycemia. […] Seven-week old ob/ob+/−male mice were dosed twice weekly with 50 mg/kg of antisense oligonucleotide, given subcutaneously. A total of five doses were given. glucose-6-phosphatase translocase antisense oligonucleotides used were ISIS 148985 (SEQ ID NO: 118) and ISIS 149008 (SEQ ID NO: 141). Each treatment group was comprised of 4 animals. Animals were sacrificed 48 hours after the last dose of oligonucleotide was administered, and liver triglycerides, liver glycogen content, and target reduction in liver were measured.
Liver triglyceride levels are used to assess hepatic steatosis, or accumulation (poor clearing) of lipids in the liver. Tissue triglyceride levels were measured using a Triglyceride GPO assay from Roche Diagnostics (Indianapolis, Ind.). Liver triglycerides were about 19 mg/dL for saline treated lean mice and were about 14 mg/dL for ISIS 149008-treated lean mice.
Tissue glycogen was measured using the Glucose Trinder Reagent (Sigma-Aldrich, St. Louis, Mo.). Glycogen levels of lean mice treated with saline alone were approximately 37 mg/g of tissue. Mice treated with ISIS 149008 or 148985, the antisense inhibitors of glucose-6-phosphatase translocase, had glycogen levels of approximately 39 mg/g and 36 mg/g, respectively.

aged Zucker fa/fa rats = experiment: Oral glucose tolerance test in ZDF rats (Table 17); format: in vivo, rat; details: alone or with Rosi
Procedure: Saline-injected animals served as a control treatment group.
To further evaluate the effects of ISIS 366228 alone or in combination with rosiglitazone, oral glucose tolerance tests were performed during the third week of treatment. To provide a baseline glucose level, fasted blood glucose levels were measured before the challenge. Glucose was administered by oral gavage via an 18 gauge gavage needle at a dose of 1 g/kg. Plasma glucose levels were measured for 15, 30, 60, 90, and 120 minutes post-challenge, using a glucose analyzer (for example, an Ascencia Glucometer Elite XL, Bayer, Tarrytown, N.Y.).

Row | Sequence | decrease in AUC of plasma glucose compared to saline, glycerol tolerance test (ob/ob mice) | % Inhib [1] | % Inhib ([1]; listed as 148985) | Liver glycogen levels [2] | plasma glucose, OGTT (aged Zucker fa/fa rats; week 3, ISIS 366228 12.5 mg/kg, 0 min (fasted)) | plasma glucose, OGTT (aged Zucker fa/fa rats; week 3, ISIS 366228 12.5 mg/kg, 15 min) | plasma glucose, OGTT (aged Zucker fa/fa rats; week 3, ISIS 366228 12.5 mg/kg, 30 min) | plasma glucose, OGTT (aged Zucker fa/fa rats; week 3, ISIS 366228 12.5 mg/kg, 60 min) | plasma glucose, OGTT (aged Zucker fa/fa rats; week 3, ISIS 366228 12.5 mg/kg, 90 min) | plasma glucose, OGTT (aged Zucker fa/fa rats; week 3, ISIS 366228 12.5 mg/kg, 120 min) | plasma glucose, OGTT (aged Zucker fa/fa rats; week 3, ISIS 366228 25 mg/kg, 0 min (fasted)) | plasma glucose, OGTT (aged Zucker fa/fa rats; week 3, ISIS 366228 25 mg/kg, 15 min) | plasma glucose, OGTT (aged Zucker fa/fa rats; week 3, ISIS 366228 25 mg/kg, 30 min) | plasma glucose, OGTT (aged Zucker fa/fa rats; week 3, ISIS 366228 25 mg/kg, 60 min) | plasma glucose, OGTT (aged Zucker fa/fa rats; week 3, ISIS 366228 25 mg/kg, 90 min) | plasma glucose, OGTT (aged Zucker fa/fa rats; week 3, ISIS 366228 25 mg/kg, 120 min) | Liver Triglycerides ([2]; saline about 19)
1 | GCTCCATAGCGAGGACTCGA (chemistry not given here) [ISIS 148985] | did not show significant decrease in AUC | approximately 84% | 84% | ~36 mg/g |  |  |  |  |  |  |  |  |  |  |  |  | 
2 | GTGCTTGGCGATGGTACTGA (chemistry not given here) [ISIS 366228] |  |  |  |  | 317 mg/dL | 418 mg/dL | 553 mg/dL | 485 mg/dL | 441 mg/dL | 444 mg/dL | 303 mg/dL | 453 mg/dL | 540 mg/dL | 461 mg/dL | 427 mg/dL | 408 mg/dL | 
3 | TATACAAGTCGGTTTGCCCT (chemistry not given here) [ISIS 149008] | approximately 30% | ~65% |  | approximately 39 mg/g |  |  |  |  |  |  |  |  |  |  |  |  | about 14 mg/dL
